This is an account of results in US9586959B2, “Substituted tricyclic heterocycles as histamine 4 receptor inhibitors” (C&C RESEARCH LABORATORIES, priority 2011, dated 2017).

Counter-ions that a name gives are not always drawn. Bounds are passed on as bounds.

The IC50 is the concentration that inhibits the measured activity by half. A higher IC50 goes with lower potency.

Chain of human histamine 3 receptor (hH3R) (Q9Y5N1 whole entry): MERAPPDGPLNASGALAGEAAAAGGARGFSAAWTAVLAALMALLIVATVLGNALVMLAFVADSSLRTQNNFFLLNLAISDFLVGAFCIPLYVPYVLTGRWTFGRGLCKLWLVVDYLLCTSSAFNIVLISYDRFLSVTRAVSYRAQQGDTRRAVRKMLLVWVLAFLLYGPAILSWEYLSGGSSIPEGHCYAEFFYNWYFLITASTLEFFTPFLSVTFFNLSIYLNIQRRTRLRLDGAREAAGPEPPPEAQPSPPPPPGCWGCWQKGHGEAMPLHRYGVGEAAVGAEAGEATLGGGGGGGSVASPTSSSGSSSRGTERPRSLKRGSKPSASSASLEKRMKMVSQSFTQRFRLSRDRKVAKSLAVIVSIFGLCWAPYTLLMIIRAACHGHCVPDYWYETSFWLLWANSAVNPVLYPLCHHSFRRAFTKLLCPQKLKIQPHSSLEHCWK

The assay has as its target human histamine 3 receptor (hH3R) (Homo sapiens (Human), UniProt Q9Y5N1). Briefly: Binding affinity of human histamine 3 receptor (hH3R), [3H] labeled N-α-methylhistamine displacement. As to conditions: hH3R-overexpressed cell membrane, [3H] N-α-methylhistamine. The procedure: 10 μL of the prepared compound solution was allocated in each well of a 96-well plate, and then 10 μL of 200 μM (R)(−)-α-methylhistamine (RaMH) diluted with analysis buffer and 1% of DMSO were transferred to each well to calculate non-specific binding and total binding degree. 15 μg of human histamine 3 receptor-overexpressed cell membrane (PerkinElmer) was diluted with 180 μL of analysis buffer solution (50 mM tris-HCl pH 7.4, 5 mM MgCl2), and that was transferred to each well. [^3H] labeled Na-methylhistamine (PerkinElmer) was diluted into […], 10 μL of that was added to each well, and then it was kept in a 27° C. incubator for 30 minutes. After the reaction, 200 μL of the mixture was transferred to a glass fiber plate in which 0.5% polyethylene amine was presoaked, and then non-binding [^3H] labeled Na-methylhistamine was removed in vacuum. After 5 times washing with 200 μL of washing buffer solution (50 mM tris-HCl, pH 7.4), the plate was dried in a 37° C. oven for 18 hours. 100 μL of betascint cocktail solution was added to each well, and after 1 hour CPM of [^3H] labeled N-α-methylhistamine was measured by using Wallac beta-counter TriLux. The binding affinity (IC50) of the human histamine 3 receptor for the present invention was analyzed by an Excel program, and the results of analysis are shown in Table 2.
Compound `Cc1cnc2c(c1)nc(N1CCN(C)CC1)c1nncn12` [Compound 1, 3-Methyl-6-(4-methylpiperazin-1-yl)pyrido[3,2-e][1,2,4]triazolo[4,3-a]pyrazine] registered an IC50 of over 100 µM.

On to `CN1CCN(c2nc3ncccc3n3cnnc23)CC1` [Compound 3, 4-(4-Methylpiperazin-1-yl)pyrido[2,3-e][1,2,4]triazolo[4,3-a]pyrazine], for which the IC50 was over 100 µM.

`CN1CCN(c2nc3cc(Cl)cnc3n3cnnc23)CC1` [Compound 5, 3-Chloro-6-(4-methylpiperazin-1-yl)pyrido[3,2-e][1,2,4]triazolo[4,3-a]pyrazine] gave an IC50 of over 100 µM.

As to `CN1CCN(c2nc3cccnc3n3cnnc23)CC1` [Compound 6, 6-(4-Methylpiperazin-1-yl)pyrido[3,2-e][1,2,4]triazolo[4,3-a]pyrazine], the IC50 is over 100 µM.

`NC1CN(c2nc3ncc(Cl)cc3n3cnnc23)C1` [Compound 8, 1-(8-Chloropyrido[2,3-e][1,2,4]triazolo[4,3-a]pyrazin-4-yl)azetidin-3-amine] displayed an IC50 of over 100 µM.

Take `CN(C)[C@@H]1CCN(c2nc3ncc(Cl)cc3n3cnnc23)C1` [Compound 9, (R)-1-(8-chloropyrido[2,3-e][1,2,4]triazolo[4,3-a]pyrazin-4-yl)-N,N-dimethylpyrrolidin-3-amine]: the IC50 was over 100 µM.

`CN[C@@H]1CCN(c2nc3ncc(Cl)cc3n3cnnc23)C1` [Compound 10, (R)-1-(8-chloropyrido[2,3-e][1,2,4]triazolo[4,3-a]pyrazin-4-yl)-N-methylpyrrolidin-3-amine] had an IC50 of over 100 µM.

Compound `CN[C@@H]1CCN(c2nc3cc(Cl)cnc3n3cnnc23)C1` [Compound 11, (R)-1-(3-chloropyrido[3,2-e][1,2,4]triazolo[4,3-a]pyrazin-6-yl)-N-methylpyrrolidin-3-amine] gave an IC50 of over 100 µM.

In the case of `Cc1nnc2c(N3CCN(C)CC3)nc3ncc(Cl)cc3n12` [Compound 14, 8-Chloro-1-methyl-4-(4-methylpiperazin-1-yl)pyrido[2,3-e][1,2,4]triazolo[4,3-a]pyrazine], the concentration for half-maximal inhibition (IC50) was over 100 µM.

For the compound `Cc1nnc2c(N3CCNCC3)nc3ncc(Cl)cc3n12` [Compound 15, 8-Chloro-1-methyl-4-(piperazin-1-yl)pyrido[2,3-e][1,2,4]triazolo[4,3-a]pyrazine], the IC50 was over 100 µM.

As for `CC1CN(c2nc3ncc(Cl)cc3n3cnnc23)CC(C)N1C` (stereo not shown) [Compound 22, 8-Chloro-4-(3,4,5-trimethylpiperazin-1-yl)pyrido[2,3-e][1,2,4]triazolo[4,3-a]pyrazine], the IC50 is over 100 µM.

The compound `N[C@@H]1CCN(c2nc3ncc(Cl)cc3n3cnnc23)C1` [Compound 30, (R)-1-(8-chloropyrido[2,3-e][1,2,4]triazolo[4,3-a]pyrazin-4-yl)pyrrolidin-3-amine] displayed an IC50 of over 100 µM.

`CNC1CN(c2nc3ncc(Cl)cc3c3nc(C)nn23)C1` [Compound 33, 1-(9-Chloro-2-methylpyrido[3,2-e][1,2,4]triazolo[1,5-c]pyrimidin-5-yl)-N-methylazetidin-3-amine] returned an IC50 of over 100 µM.

Compound `CNC1CN(c2nc3ncc(Cl)cc3c3ncnn23)C1` [Compound 36, 1-(9-Chloropyrido[3,2-e][1,2,4]triazolo[1,5-c]pyrimidin-5-yl)-N-methylazetidin-3-amine] registered an IC50 of over 100 µM.

As for `Clc1cnc2nc(N3CCNCC3)n3ncnc3c2c1` [Compound 37, 9-Chloro-5-(piperazin-1-yl)pyrido[3,2-e][1,2,4]triazolo[1,5-c]pyrimidine], the IC50 is over 100 µM.

Compound `COCc1nc2c3cc(Cl)cnc3nc(N3CCN(C)CC3)n2n1` [Compound 40, 9-Chloro-2-(methoxymethyl)-5-(4-methylpiperazin-1-yl)pyrido[3,2-e][1,2,4]triazolo[1,5-c]pyrimidine] showed an IC50 of over 100 µM.

The compound `CCc1nc2c3cc(Cl)cnc3nc(N3CCN(C)CC3)n2n1` [Compound 41, 9-Chloro-2-ethyl-5-(4-methylpiperazin-1-yl)pyrido[3,2-e][1,2,4]triazolo[1,5-c]pyrimidine] showed an IC50 of over 100 µM.

`CNC1CN(c2nc3ncc(Cl)cc3c3cn(C)nc23)C1` [Compound 44, 1-(8-Chloro-2-methyl-2H-pyrazolo[3,4-c][1,8]naphthylidine-4-yl)-N-methylazetidin-3-amine] showed an IC50 of over 100 µM.

`CCc1cnc2nc(N3CC(NC)C3)c3nncn3c2c1` [Compound 56, 1-(8-Ethylpyrido[2,3-e][1,2,4]triazolo[4,3-a]pyrazin-4-yl)-N-methylazetidin-3-amine]: the IC50 was over 100 µM.

Compound `CNC1CN(c2nc3ncc(O)cc3n3cnnc23)C1` [Compound 57, 4-(3-(Methylamino)azetidin-1-yl)pyrido[2,3-e][1,2,4]triazolo[4,3-a]pyrazin-8-ol] gave an IC50 of over 100 µM.

As to `COc1nc2nc(N3CCNCC3)c3nncn3c2cc1Cl` [Compound 61, 8-Chloro-7-methoxy-4-(piperazin-1-yl)pyrido[2,3-e][1,2,4]triazolo[4,3-a]pyrazine], the IC50 was over 100 µM.

In turn, `CN1CC2CN(c3nc4ncc(Cl)cc4n4cnnc34)CC2C1` (stereo not shown) [Compound 70, 8-Chloro-4-(5-methylhexahydropyrrolo[3,4-c]pyrrole-2(1H)-yl)pyrido[2,3-e][1,2,4]triazolo[4,3-a]pyrazine] yielded an IC50 of over 100 µM.

Regarding `CN1CC2CN(c3nc4ncc(Br)cc4n4cnnc34)CC2C1` (stereo not shown) [Compound 71, 8-Bromo-4-(5-methylhexahydropyrrolo[3,4-c]pyrrole-2(1H)-yl)pyrido[2,3-e][1,2,4]triazolo[4,3-a]pyrazine], the IC50 is over 100 µM.

On to `CC1(N)CN(c2nc3ncc(Br)cc3n3cnnc23)C1` [Compound 72, 1-(8-Bromopyrido[2,3-e][1,2,4]triazolo[4,3-a]pyrazin-4-yl)-3-methylazetidin-3-amine], for which the IC50 was over 100 µM.

As for `CNC1(C)CN(c2nc3ncc(Br)cc3n3cnnc23)C1` [Compound 73, 1-(8-Bromopyrido[2,3-e][1,2,4]triazolo[4,3-a]pyrazin-4-yl)-N,3-dimethylazetidin-3-amine], the IC50 was over 100 µM.

Regarding `Clc1cnc2nc(N3CCN(C4CC4)CC3)c3nncn3c2c1` [Compound 76, 8-Chloro-4-(4-cyclopropylpiperazin-1-yl)pyrido[2,3-e][1,2,4]triazolo[4,3-a]pyrazine], the IC50 is over 100 µM.

Compound `Clc1cnc2nc(N3CCCNCC3)c3nncn3c2c1` [Compound 79, 8-Chloro-4-(1,4-diazepan-1-yl)pyrido[2,3-e][1,2,4]triazolo[4,3-a]pyrazine] yielded an IC50 of over 100 µM.

Take `CN[C@@H]1CCN(c2nc3ncc(Br)cc3n3cnnc23)C1` [Compound 81, (R)-1-(8-bromopyrido[2,3-e][1,2,4]triazolo[4,3-a]pyrazin-4-yl)-N-methylpyrrolidin-3-amine]: the IC50 was over 100 µM.

The compound `Clc1cnc2nc(N3CC4CCCNC4C3)c3nncn3c2c1` (stereo not shown) [Compound 82, 8-Chloro-4-(hexahydro-1H-pyrrolo[3,4-b]pyridin-6(2H)-yl)pyrido[2,3-e][1,2,4]triazolo[4,3-a]pyrazine] gave an IC50 of over 100 µM.

`CN1CCCC2CN(c3nc4ncc(Cl)cc4n4cnnc34)CC21` (stereo not shown) [Compound 83, 8-Chloro-4-(1-methylhexahydro-1H-pyrrolo[3,4-b]pyridin-6(2H)-yl)pyrido[2,3-e][1,2,4]triazolo[4,3-a]pyrazine] registered an IC50 of over 100 µM.

In turn, `CN(C)C1CN(c2nc3ncc(Cl)cc3n3cnnc23)C1` [Compound 84, 1-(8-Chloropyrido[2,3-e][1,2,4]triazolo[4,3-a]pyrazin-4-yl)-N,N-dimethylazetidin-3-amine] came in with an IC50 of over 100 µM.

`CN(C)C1CN(c2nc3ncc(Br)cc3n3cnnc23)C1` [Compound 85, 1-(8-Bromopyrido[2,3-e][1,2,4]triazolo[4,3-a]pyrazin-4-yl)-N,N-dimethylazetidin-3-amine]: the IC50 is over 100 µM.

`OCCNc1nc2ncc(Cl)cc2n2cnnc12` [Compound 87, 2-((8-Chloropyrido[2,3-e][1,2,4]triazolo[4,3-a]pyrazin-4-yl)amino)ethanol] yielded a concentration for half-maximal inhibition (IC50) of over 100 µM.

In the case of `Cc1nc2c(N3CC(N(C)C(=O)OC(C)(C)C)C3)nc3ncc(Cl)cc3c2o1` [Compound 90, tert-Butyl (1-(8-chloro-2-methyloxazolo[4,5-c][1,8]naphthylidine-4-yl)azetidin-3-yl)(methyl)carbamate], the IC50 is over 100 µM.

For the compound `CNC1CN(c2nc3ncc(Cl)cc3n3nc(C)nc23)C1` [Compound 97, 1-(8-Chloro-2-methylpyrido[2,3-e][1,2,4]triazolo[1,5-a]pyrazin-4-yl)-N-methylazetidin-3-amine], the IC50 is 87 µM.

With `CNC1CN(c2nc3nc(C)c(Br)cc3n3cnnc23)C1` [Compound 99, 1-(8-bromo-7-methylpyrido[2,3-e][1,2,4]triazolo[4,3-a]pyrazin-4-yl)-N-methylazetidin-3-amine], the IC50 is over 100 µM.

In the case of `CNC1CN(c2nc3nc(O)c(Cl)cc3n3cnnc23)C1` [Compound 101, 8-chloro-4-(3-(methylamino)azetidin-1-yl)pyrido[2,3-e][1,2,4]triazolo[4,3-a]pyrazin-7-ol HCl salt], the IC50 was over 100 µM.
